From patent US9453198B2, “Method of nociceptor differentiation of human embryonic stem cells and uses thereof” (MEMORIAL SLOAN KETTERING CANCER CENTER, priority 2010, dated 2016)

Assays:
[1] = test system: transgenic SOX10::GFP BAC hESC line; assay: SOX10::GFP reporter FACS (neural crest induction); assay type: cell-based, human; settings: by day 12 of differentiation
Description: Thus, in order to determine if a neural crest intermediate cell fate marked by SOX10 (Aoki, et al., Dev Biol 259, 19-33, (2003); Lee, et al., Nat Biotechnol 25, 1468-1475, (2007), herein incorporated by reference) in human cells would be observed during differentiation using a transgenic SOX10::GFP bacterial artificial chromosome (BAC) hPSC line. This SOX10:: GFP (BAC) cell line was generated with enriched neural crest gene markers that co-expressed with a GFP gene using methods previously reported (Placantonakis, et al., Stem Cells 27:521-532, (2009), herein incorporated by reference). The SOX10:GFP cell line was a sub-clone of the H9 hESC line. Cells were dissociated and gene delivery was performed using reagents (solution V), protocol (B-16), and equipment from Amaxa. The DNA nucleofected (transfected into the nucleus) was a bacterial artificial chromosome (BAC) containing the SOX10 gene with an inserted GFP, obtained from Gene Expression Nervous System Atlas [GENSAT] (accession number: GENSAT1-BX1086). […]

rodent GSK3β homologs = settings: cited from earlier work
hPSCs = assay: Intracellular FACS for Nestin and TUJ1 (efficiency of neuronal differentiation); assay type: cell-based, human; settings: day 10, further inhibitors added day 2 of LSB treatment
Procedure: In the presence of LSB, SU/DAPT, DAPT, SU and CHIR, the majority of cells expressed Nestin. In particular, >95% of the LSB cell population were Nestin+.
Neural induction was performed as previously reported (Chambers, et al., Nat Biotechnol 27, (2009), herein incorporated by reference). Briefly, cells were collected then rendered to a single cell suspension using ACCUTASE (Sigma-Aldrich Corp. St. Louis, Mo., USA) and plated on gelatin for 30 minutes to remove Mouse Embryonic Fibroblast (MEF) Feeder Cells (MEFs) (MEFs adhere to gelatin coated plate). Non-adherent cells were collected and plated on matrigel treated dishes at a density of 20-40,000 cells/cm^2 in the presence of MEF-conditioned hESC media containing 10 ng/ml FGF-2 and 10 μM Y-27632 (rho-kinase inhibitor—Tocris Bioscience). Neural differentiation was initiated when the cells were confluent using Knockout Serum Replacement (KSR) media containing 820 ml of Knockout DMEM, 150 ml Knockout Serum Replacement, 1 mM L-glutamine, 100 μM MEM non-essential amino acids, and 0.1 mM β-mercaptoethanol. To inhibit SMAD signaling, 100 nM LDN-193189 and 10 μM SB431542 were added daily from day 0 (when SMAD signaling inhibitors LSB were added) through day 5. Cells were fed daily (i.e. 6 feedings with inhibitors, D0, D1, D2, D3, D4 and D5), and N2 media was added to the initial medium in increasing 25% increments every other day starting on day 4 (up to 100% N2 on day 10). […] After day 10, long-term culture media consisted of N2 media containing 10-100 ng/ml human-β-nerve growth factor (NGF), 10-100 ng/ml brain-derived neurotrophic factor (BDNF), and 10-100 ng/ml glial cell-derived neurotrophic factor (GDNF).
Cells were fixed with 4% paraformaldehyde for 20 minutes, washed with phosphate buffered saline (PBS), permeablized using 0.5% Triton X in PBS, and blocked using 1% BSA (bovine serum albumin) in phosphate buffered saline (PBS). For glutamate staining, 0.05% gluteraldehyde was added to the fixative. […]

human ES cells = assay: Combinatorial small molecule screen, TUJ1/PAX6 immunofluorescence on day 10; assay type: cell-based; settings: no matter when added during LSB treatment
Description: Specifically, in the context of dual SMAD inhibition (LSB), i.e. human ES cells were first treated with LSB (LDN-193189 and SB431542) for screening candidate compounds (i.e. small molecules) under approximately 400 conditions in order to find combinations of small molecules that might accelerate the acquisition of postmitotic neuron markers starting from human ES cells. Candidate compounds were chosen from molecules that targeted (altered) cell signaling pathways known to be important and frequently used in developmental studies in order to determine cell fates (for example, signaling pathways such as FGF, Notch, WNT, SHH (Sonic Hedgehog), etc.) for determining cells capable of CNS development. […]
On day 10 after addition of LSB, cells that survived during the screen were monitored for the loss of the human neuroectoderm marker PAX6 (Zhang, et al., Cell Stem Cell 7, 90-100, (2010), herein incorporated by reference) and initiation of neuronal differentiation by TUJ1 expression (Lee, et al., Cell Motil Cytoskeleton 17, 118-132, (1990), herein incorporated by reference). […] In general, results were determined by observing comparative amounts of TUJ1+/PAX6− staining of cells generated by each treatment such that the conditions and compounds showing the highest amounts of TUJ1+/PAX6− staining were chosen as successful for providing cells for further analysis. […]

hESC = assay: Timing of 3i addition after LSB induction (survival, TUJ1); assay type: cell-based
Description: Cells were stained for identifying antibodies that bound to OCT4 (dark) and PAX6 (light) in addition to a nuclear 4′-6 Diamidino-2-phenylindole (DAPI) stain.
The stem cells treated with the combination of LSB and 3i were fixed on day 11 and examined for survival and expression of the neuronal marker TUJ1.

[2] = test system: melanocyte precursors from hESC; assay: Expansion and maturation of melanocytes; assay type: cell-based, human; settings: component left out of formulation
Description: Melanocyte characteristics evaluated included induction of spindle morphology, pigmentation, and melanosome formation.
Specifically, the following time line of culturing conditions was developed that produced melanocytes of the present inventions: Feed on Day 0 and 1 with LDN and SB (using the same concentration ranges as LDN and SB in methods comprising 3i); Feed on Day 2 with LDN, SB, CHIR (using the same concentration ranges as LDN, SB, and CHIR in methods comprising 3i as described herein); In one embodiment, Feed on Day 3 with SB, CHIR (using the same concentration ranges as SB and CHIR in methods comprising 3i as described herein), in another embodiment Feed on Day 3 with LDN, SB, CHIR (using the same concentration ranges as LDN, SB, and CHIR in methods comprising 3i as described herein); Feed on Day 4 and 5 CHIR (using the same concentration ranges as CHIR in methods comprising 3i as described herein); Feed on Day 6 to 11 CHIR, BMP4, and EDN3 (using the same concentration ranges as CHIR in methods comprising 3i as described herein, see concentration ranges below for BMP4 and EDN3). On day 11 cells were passaged and fed with MEL media (including CHIR) up to 8 weeks. […]

**Q.** What does the source list for `Cc1c[nH]c(-c2cnc(NCCNc3ccc(C#N)cn3)nc2-c2ccc(Cl)cc2Cl)n1` [CHIR99021, 6-(2-(4-(2,4-dichlorophenyl)-5-(4-methyl-1H-imidazol-2-yl)pyrimidin-2-ylamino)ethylamino)nicotinonitrile]?
**A.** SOX10::GFP+ cells [1]: greater than 70%; IC50 values (rodent GSK3β homologs): nanomolar; Nestin positive cells (progenitors) (hPSCs): majority

**Q.** Which “effect on TUJ1/PAX6 staining” value (human ES cells) does the source give for `CC1=C2C[C@H]3[C@@H](CC=C4C[C@@H](O)CC[C@@]43C)[C@@H]2CC[C@]12O[C@@H]1C[C@H](C)CN[C@H]1[C@H]2C` [Cyclopamine] here?
**A.** no effect

**Q.** With `C[C@H](NC(=O)Cc1cc(F)cc(F)c1)C(=O)N[C@H](C(=O)OC(C)(C)C)c1ccccc1` [DAPT, N—[N-(3,5-Difluorophenacetyl)-L-alanyl]-S-phenylglycine t-butyl ester] as the molecule, how does the “Nestin positive cells (progenitors)” value (hPSCs) read?
**A.** majority

**Q.** For `c1ccc2c(-c3cnn4cc(-c5ccc(N6CCNCC6)cc5)cnc34)ccnc2c1` [LDN193189, 4-(6-(4-(piperazin-1-yl)phenyl)pyrazolo[1,5-a]pyrimidin-3-yl)quinoline], which “effect of inclusion or exclusion from days 5 to 10 on the differentiation” value (hESC) is on record?
**A.** does not make a difference

**Q.** Which “requirement in medium for growth of melanocytes” value [2] does the source give for `CCCCC/C=C\C/C=C\CCCCCCCC(=O)O` [Linoleic Acid] here?
**A.** required

**Q.** With `Cc1c[nH]c(/C=C2\C(=O)Nc3ccccc32)c1CCC(=O)O` [SU5402, 2-[(1,2-Dihydro-2-oxo-3H-indol-3-ylidene)methyl]-4-methyl-1H-pyrrole-3-propanoic acid] as the molecule, how does the “Nestin positive cells (progenitors)” value (hPSCs) read?
**A.** majority
